Source: patent publication US20260198495A1, “BINARY INSECTICIDE COMPOSITION AND USE THEREOF” (SHENYANG SINOCHEM AGROCHEMICALS R & D CO., LTD., priority 2022, published 2026)

How the values were obtained:
Type in all cases: in vivo
[1] = system: Aphis gossypii Glover nymphs; experiment: Joint toxicity of I-72 + organophosphorus insecticides, cotton leaf spraying, Example 17, Table 17; details: nymphs, cotton leaf spraying, 48 h, A = compound I-72, B = diazinon, read-out: LC50
Protocol: Test target: Aphis gossypii Glover nymphs, a sensitive strain reared indoors.
(§1) Preparation of the pesticide solution: according to different test requirements, the test samples were accurately weighed respectively with an electronic analytical balance. The technical pesticides were dissolved in acetone, and then diluted with 0.1% Tween 80 water into a series of pesticide solutions with a certain concentration gradient according to the experimental design dosage.
(§2) Experimental method: first, cotton leaves with uniform and consistent Aphis gossypii were selected, with about 20 insects on each leaf. Then, they were evenly sprayed with the pesticide solution in the order from low dosage to high dosage according to the experimental design, with 1.5 mL for each leaf and 3 replicates for each treatment. In addition, a blank control was set up.
The treated test materials were placed in an observation room, and the temperature, humidity and illumination of the observation room could be adjusted as needed. The number of dead and live insects was investigated 48 hours later. The corrected mortality rate was calculated using the Abbott's formula, and statistical analysis was performed with the DPS data processing software to obtain the toxicity regression equation, LC50 value and 95% confidence limit of each single test pesticide and each mixture of different ratios. Then, the co-toxicity coefficient of each ratio was calculated using the Sun Y-P method to evaluate the mixing effect (the same as in Example 1).

[2] = system: 3rd-instar larvae of Yponomeuta evonymallus (Linnaeus); experiment: Synergism screening (Bliss) of I-72 + pyrethroid insecticides, Example 37, Table 37; details: single pesticide, leaf dipping, 72 hours
Protocol: Test target: 3rd-instar larvae of Yponomeuta evonymallus (Linnaeus).
as §1
(§3) Experimental method: Firstly, Hylotelephium spectabile leaves were selected and dipped into the prepared pesticide solutions for 10 s in the order from low dosage to high dosage according to the experimental design. After natural air-drying in the shade, they were placed in a 9-cm-diameter Petri dish with filter paper, and uniform and healthy test insects were introduced, with 10 insects for each treatment and 3 replicates for each treatment. In addition, a blank control (CK) was set up.
(§4) The treated test materials were placed in an observation room, and the temperature, humidity and illumination of the observation room could be adjusted as needed. The number of dead and alive insects was investigated 72 hours later, and the corrected mortality rate was calculated using the Abbott's formula.
(§5) The synergism of the mixture was evaluated by the Bliss method. According to the concept of independent joint action he proposed, Bliss believes that the theoretical mortality rate P when insecticides are used in combination can be calculated by the following formula: […]
(§6) Pm is the measured mortality rate (%) of the target when the first active ingredient is at a concentration of m; and Pn is the measured mortality rate (%) of the target when the second active ingredient is used at a concentration of n.
(§7) If the actual mortality rate of the target after the two active ingredients are mixed at a certain concentration is greater than theoretical mortality rate P, it is determined that the two active ingredients have a synergistic effect when used in combination at the set concentration, and otherwise, they have an antagonistic effect.

[3] = system: 2nd-instar larvae of Plutella xylostella; experiment: whole plant or invertebrate; details: Plutella xylostella; single pesticide, 0.5 mg/L; 72 hours; read-out: Measured mortality rate
Protocol: Test target: 2nd-instar larvae of Plutella xylostella.
as §1
as §3, with “first, cabbage” for “Firstly, Hylotelephium spectabile”, “in” for “into”, “solution” for “solutions”
as §4, §5, §6, §7

[4] = system: 2nd-instar larvae of Mythimna separata; experiment: Joint toxicity of I-72 + hexaflumuron, Example 56, Table 56; details: foliar, A = compound I-72, B = hexaflumuron, corn leaf dipping, 72 hours, read-out: LC50
Protocol: Test target: 2nd-instar larvae of Mythimna separata.
as §1
as §3, with “first, corn” for “Firstly, Hylotelephium spectabile”, “in” for “into”, “solution” for “solutions”, “control” for “control (CK)”
(§8) The treated test materials were placed in an observation room, and the temperature, humidity and illumination of the observation room could be adjusted as needed. The number of dead and live insects was investigated 72 hours later. […] Then, the co-toxicity coefficient of each ratio was calculated using the Sun Y-P method to evaluate the mixing effect (the same as in Example 1).

[5] = system: Myzus persicae (Sulzer) nymphs; experiment: Joint toxicity of I-72 + cyantraniliprole, Example 59, Table 59; details: A = compound I-72, B = cyantraniliprole, cabbage leaf spraying, 48 hours, read-out: LC50
Protocol: Test target: Myzus persicae (Sulzer) nymphs, a sensitive strain reared indoors.
as §1
as §2, with “cabbage” for “cotton”, “Myzus persicae (Sulzer)” for “Aphis gossypii”, “30-40” for “20”, “mL of the solution” for “mL”
as §8, with “48” for “72”

[6] = system: adult Phyllotreta vittuta Fabr.; experiment: Joint toxicity of I-72 + cyantraniliprole, Example 63, Table 63; details: A = compound I-72, B = cyantraniliprole; potted cabbage seedling spraying; 72 hours; read-out: LC50
Protocol: Test target: adult Phyllotreta vittuta Fabr.
as §1
Experimental method: first, uniform and consistent potted cabbage seedlings were selected. Then, uniform spraying was performed with the pesticide solution in the order from low dosage to high dosage according to the experimental design. After air-drying in the shade, adult flea beetles were transferred onto the treated cabbage seedlings, and then glass covers were put on them, with about 30-40 adult flea beetles on each seedling and 3 replicates for each treatment. In addition, a blank control was set up.
as §8

Empoasca pirisuga = experiment: Field efficacy trial of I-72 and Beauveria bassiana in a tea garden, Example 88, Table 88; details: spraying
Protocol: This trial was performed in a tea garden in Yuhang District, Hangzhou. The spraying method was used for pesticide application. The investigation method was to take samples at 5 points, with 2 fixed plants at each point. A total of 10 plants were investigated in each plot, and the trial was replicated four times. The number of Empoasca vitis nymphs on the back of 100 tender leaves in each plot was randomly investigated. The amount of the pesticide solution sprayed was 75 L per mu. The base number was investigated before the pesticide application, and the number of live Empoasca pirisuga in each treatment sample point was investigated 3, 7 and 14 days after the pesticide application. The calculation method for the efficacy of the test pesticides was the same as that in Example 38.
Test pesticides: A: wettable powder of Beauveria bassiana with 40 billion spores/gram (Jiangxi Tianren Ecology Co., Ltd.); and B: compound I-72 (dissolved in acetone, 0.1% Tween 80 was added, and a 10% stock solution was prepared for use).

In the case of `CN(C(=O)c1ccc2c(c1)OC(F)(F)O2)c1cccc(C(=O)Nc2c(Br)cc(C(F)(C(F)(F)F)C(F)(F)F)cc2OC(F)F)c1F` [Compound I-72], the LC50 [1] is reported as 2.83 mg/L, the “Measured mortality rate (%)” value ([2]; concentration 0.1 mg/L) is reported as 11.1% and the “Measured mortality rate (%)” value ([2]; concentration 5 mg/L) is reported as 57.1%. For the same molecule, the mortality at 0.5 µg/mL [3] was 80%, the LC50 [4] was 0.0301 mg/L and the LC50 [5] was 8.14 mg/L. The LC50 [6] was 1.16 mg/L, the “Control efficacy 3 days after pesticide application” value (shortened to “Control efficacy 3 days”) (Empoasca pirisuga; dose 15 ml) was 57.0% and the “Control efficacy 7 days after pesticide application” value (“Control efficacy 7 days” for short) (Empoasca pirisuga; dose 15 ml) was 75.8%. For the same molecule, the “Control efficacy 14 days after pesticide application” value (“Control efficacy 14 days” below) (Empoasca pirisuga; dose 15 ml) was 74.2%, the “Control efficacy 3 days” value (Empoasca pirisuga; dose 30 ml) was 57.5% and the “Control efficacy 7 days” value (Empoasca pirisuga; dose 30 ml) was 77.7%. The “Control efficacy 14 days” value (Empoasca pirisuga; dose 30 ml) was 79.3%, the “Control efficacy 3 days” value (Empoasca pirisuga; dose 45 ml) was 62.5% and the “Control efficacy 7 days” value (Empoasca pirisuga; dose 45 ml) was 78.1%. The “Control efficacy 14 days” value (Empoasca pirisuga; dose 45 ml) was 78.9%.
